Data on 16 compounds can be found in patent US9745597B2, “Compositions and methods for controlling fungal and bacterial diseases in plants” (priority 2014, dated 2017).

Experiment [1] relates to Botrytis cinerea. Kind of experiment: In vivo preventive test on Botrytis (beans) (Example 19). The following applies: lesion size 3 days after inoculation.
Experiment [2] has as its system Alternaria solani. Kind of experiment: In vivo preventive test on Alternaria (tomatoes), equilibrated mixtures (Example 18). The following applies: 3 days after inoculation.
Experiment [3] relates to Venturia inaequalis. Kind of experiment: In vivo preventive test on Venturia (apples), equilibrated mixtures (Example 17). The following applies: 10 days after inoculation.
The test system of experiment [4] is Venturia inaequalis. The experiment can be described thus: In vivo preventive test on Venturia (apples) (Example 10). To be noted: rate 0.05%; 10 days after inoculation.
The test system of experiment [5] is Sphaerotheca fuliginea. The experiment can be described thus: In vivo preventive test on Sphaerotheca (cucumbers) (Example 9). To be noted: rate 0.05%; 7 days after inoculation. Here is the method: […] (Bacillus subtilis QST713 fermentation product) and the adjuvants […]-77 (polyalkyleneoxide modified heptamethyltrisiloxane), […]® (synthetic latex), NIMBUS® (paraffin mineral oil), […] (rapeseed oil methyl ester; castor oil ethoxylated) or MERO® (rapeseed oil methyl ester) were diluted in water to the desired concentrations and applied separately and in combination to young cucumber plants. After the spray coating had dried on, the plants were inoculated with an aqueous spore suspension of Sphaerotheca fuliginea. […] (Bacillus subtilis QST713 fermentation product) in combination with […]-77 (polyalkyleneoxide modified heptamethyltrisiloxane), […]® (synthetic latex), NIMBUS® (paraffin mineral oil), […] (rapeseed oil methyl ester; castor oil ethoxylated) or MERO® (rapeseed oil methyl ester) is greater than the calculated activity, i.e., a synergistic effect is present.

In another experiment the test system is Uromyces appendiculatus. The experiment can be described thus: In vivo preventive test on Uromyces (beans) (Example 13). The following applies: rate 0.05%; 10 days after inoculation.
Experiment [6] concerns Alternaria solani. The experiment can be described thus: In vivo preventive test on Alternaria (tomatoes) (Example 11). The following applies: rate 0.05%; 3 days after inoculation.
In another experiment the test system is Phakopsora pachyrhizi. The experiment can be described thus: In vivo preventive test on Phakopsora (soybeans) (Example 12). To be noted: rate 0.05%; 7 days after inoculation.
Experiment [7] concerns Phytophthora infestans. It is filed as in vivo. To be noted: for Percent Control of Tomato Late Blight: 1.0 weight % in 50% ethanol; for fungicidal activity against Tomato Late Blight: 0.25, 0.50 and 1.00 weight %, FIG. 4.
The subject of experiment [8] is Phytophthora infestans. It is filed as in vivo. The following applies: rates between 0.0625 and 2.0 weight %; FIG. 2A, FIG. 3.
For experiment [9], the system named is Botrytis cinerea. It is filed as in vivo. The following applies: rates between 0.0625 and 1.0 weight %; FIG. 2B.
Experiment [10] relates to Botrytis cinerea. The experiment can be described thus: In vivo preventive test on Botrytis (beans) (Example 14). To be noted: rate 0.2%; lesion size 3 days after inoculation.
The subject of the next experiment is Erwinia amylovora. The experiment can be described thus: In vivo control of Erwinia amylovora on apple blossoms (Example 30). To be noted: concentration 0.025 % applied to blossoms; after 6-7 days.
Experiment [11] concerns Sphaerotheca fuliginea. Kind of experiment: In vivo preventive test on Sphaerotheca (cucumbers), equilibrated mixtures (Example 16). The following applies: rate 0.015%; 7 days after inoculation.

Counter-ions that a name gives are not always drawn.

For the compound `CCCCCCCCCCCCOS(=O)(=O)[O-].[Na+]` [LOXANOL ® K12P, sodium dodecyl sulfate], the “Efficacy in % Found” value worked out at 0% in the experiment on Botrytis cinerea [1] (rate 0.12%); 8% with Alternaria solani [2] (rate 0.015%); 0% in the experiment with Alternaria solani [2] (rate 0.03%); 23% with Alternaria solani [2] (rate 0.06%); 30% in the experiment with Alternaria solani [2] (rate 0.12%); 11% in the experiment with Venturia inaequalis [3] (rate 0.03%). Also, the “Efficacy in % Found” value in the experiment on Venturia inaequalis [3] (rate 0.06%) is reported as 41%; in the experiment with Venturia inaequalis [3] (rate 0.12%), 73%.
As to “cocoamidopropyl betaine (C8-C18) [GENAGEN ® CAB 818]”, the “Efficacy in % Found” value came to 29% with Botrytis cinerea [1] (rate 0.06%); 32% in the experiment on Botrytis cinerea [1] (rate 0.12%); 4% in the experiment with Venturia inaequalis [3] (rate 0.015%); 68% in the experiment with Venturia inaequalis [3] (rate 0.03%); 56% in the experiment with Venturia inaequalis [3] (rate 0.06%).
As to “polyalkyleneoxide modified heptamethyltrisiloxane [SILWET ® L-77]”, the “Efficacy in % Found” value is 0% with Venturia inaequalis [4]; 0% in the experiment on Sphaerotheca fuliginea [5]; 0% in the experiment with Uromyces appendiculatus; 16% in the experiment with Alternaria solani [6]; 0% in the experiment on Phakopsora pachyrhizi.
Consider sorbitan trioleate [SPAN ® 85], for which, in the experiment on Phytophthora infestans [7], the “Percent Control of Tomato Late Blight” value turned out to be 0%.
With `CCCCCCCCCO[C@@H]1O[C@H](CO)[C@@H](O)[C@H](O)[C@H]1O` [n-nonyl-B-D-glucoside], in the experiment with Phytophthora infestans [7], the “fungicidal activity against Tomato Late Blight” value (“fungicidal activity” below) is “fungicidal activity was observed” and the “Percent Control of Tomato Late Blight” value is 77%.
Consider sorbitan monolaurate [SPAN ® 20], for which the “Percent Control of Tomato Late Blight” value in the experiment with Phytophthora infestans [7] is 75%. Further, the “control of Tomato Late Blight” value in the experiment on Phytophthora infestans [8] was “the highest level of control was observed at 1.0 and 2.0 weight %”. Also, the “control of Pepper Grey Mould” value with Botrytis cinerea [9] is recorded as “increasing control of the plant pathogen was observed as higher rates were applied”.
As to `CCCCCCCCCCCCO[C@@H]1O[C@H](CO)[C@@H](O)[C@H](O)[C@H]1O` [n-dodecyl-B-D-glucoside], in the experiment with Phytophthora infestans [7], the “fungicidal activity” value is “fungicidal activity was observed” and the “Percent Control of Tomato Late Blight” value was found to be 96%.
Turning to octyl glucose neopentyl glycol, the “fungicidal activity” value in the experiment on Phytophthora infestans [7] is given as “fungicidal activity was observed”.
Turning to “C8-10 alkyl polyglycoside [AGNIQUE ® PG8107G]”, the “Efficacy in % Found” value with Botrytis cinerea [10] was 0%.
In the case of “C12-C14 lauryl dimethyl betaine [GENAGEN ® KB]”, the “Efficacy in % Found” value with Botrytis cinerea [1] (rate 0.06%) was 18%; in the experiment with Botrytis cinerea [1] (rate 0.12%), 39%; in the experiment on Venturia inaequalis [3] (rate 0.015%) it was 15%.
As to sucrose monodecanoate, the “Percent Control of Tomato Late Blight” value in the experiment with Phytophthora infestans [7] was found to be 25%.
In the case of `CCCCC(CC)COC(=O)CC(C(=O)OCC(CC)CCCC)S(=O)(=O)[O-].[Na+]` (stereo not drawn) [GEROPON ® DOS-PG], the “Efficacy in % Found” value turned out to be 0% with Uromyces appendiculatus; 35% with Alternaria solani [6]; 0% with Phakopsora pachyrhizi; 38% in the experiment on Venturia inaequalis [3] (rate 0.03%); 15% in the experiment on Venturia inaequalis [3] (rate 0.06%); 28% with Venturia inaequalis [3] (rate 0.12%).
For the compound sorbitan oleate [SPAN ® 80], in the experiment with Phytophthora infestans [7], the “Percent Control of Tomato Late Blight” value was 50%.
On to `CCCCCCCCCCO[C@@H]1O[C@H](CO)[C@@H](O)[C@H](O)[C@H]1O` [n-decyl-B-D-glucoside], for which, in the experiment with Phytophthora infestans [7], the “fungicidal activity” value is listed as “fungicidal activity was observed” and the “Percent Control of Tomato Late Blight” value worked out at 97%.
In the case of `[H]/N=C(/N)N[C@H]1[C@H](O)[C@@H](O)[C@H](O[C@@H]2O[C@@H](C)[C@](O)(C=O)[C@H]2O[C@@H]2O[C@@H](CO)[C@H](O)[C@@H](O)[C@@H]2NC)[C@@H](N/C(N)=N\[H])[C@@H]1O` [Streptomycin sulfate], in the experiment on Erwinia amylovora, the Efficacy in % is 89%.
Regarding “alkyl polyethylene glycol ether phosphoric acid mono/diester [HORDAPHOS ® 1306]”, the “Efficacy in % Found” value in the experiment with Sphaerotheca fuliginea [11] is recorded as 0%; in the experiment with Botrytis cinerea [1] (rate 0.12%), 0%; in the experiment on Botrytis cinerea [1] (rate 0.25%), 14%; in the experiment with Alternaria solani [2] (rate 0.015%), 30%; in the experiment with Alternaria solani [2] (rate 0.03%), 32%; in the experiment on Venturia inaequalis [3] (rate 0.06%), 19%.
